We go through 11 compounds from publication PMC8395285, “Novel 2-(Adamantan-1-ylamino)Thiazol-4(5H)-One Derivatives and Their Inhibitory Activity towards 11β-HSD1—Synthesis, Molecular Docking and In Vitro Studies” (International Journal of Molecular Sciences, 2021).

Series [1] deals with T1, 11β-HSD1 (Homo sapiens, UniProt P28845).
T1 construct: Human liver microsomes were used as a source of 11β-HSD1 enzyme; tissue XenoTech Lot No.1410013; host or cells: pooled human liver microsomes, mixed gender
The experiment in a line: Inhibition of 11β-HSD1 (cortisone to cortisol, human liver microsomes, cortisol ELISA). It is filed as biochemical. To be noted: for inhibition at 10 µM: 10 µM compound, 2.5 h at 37 °C; for IC50: concentrations 0.625-10.0 µM, read from the chart. The protocol: To stop the reaction, 10 µL of a 100 µM solution of 18β-glycyrrhetinic acid in PBS was added. The level of cortisol obtained in the reaction was measured by commercially available ELISA kit.
(§1) As a control, analogous tests without the addition of inhibitors were used. Half the inhibitory concentration (causing 50% reduction of cortisol or cortisone) was read from the chart.
A general note: Liver microsomes are vesicles of endoplasmic reticulum, rich in cytochrome P450 enzymes.

The target of series [2] is T2, 11β-HSD2 (Homo sapiens, UniProt P80365).
T2 construct: Human liver microsomes were used as a source of 11β-HSD2 enzyme; tissue XenoTech Lot No. 1710160; host or cells: human kidney microsomes, mixed gender (the method paragraph says human liver microsomes)
T2 sequence (P80365 1-405): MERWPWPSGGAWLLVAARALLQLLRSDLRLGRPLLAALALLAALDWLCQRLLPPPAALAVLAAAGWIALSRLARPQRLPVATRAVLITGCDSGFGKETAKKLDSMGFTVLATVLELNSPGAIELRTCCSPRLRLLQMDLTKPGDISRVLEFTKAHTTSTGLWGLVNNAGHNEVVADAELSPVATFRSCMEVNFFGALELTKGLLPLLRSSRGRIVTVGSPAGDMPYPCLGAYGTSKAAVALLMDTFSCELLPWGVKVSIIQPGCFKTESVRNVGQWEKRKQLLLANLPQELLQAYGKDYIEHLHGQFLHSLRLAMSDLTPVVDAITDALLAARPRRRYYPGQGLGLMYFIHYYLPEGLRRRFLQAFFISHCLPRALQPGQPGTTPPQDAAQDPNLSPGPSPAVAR
The experiment in a line: Inhibition of 11β-HSD2 (cortisol to cortisone, human microsomes, cortisol ELISA). Type of series: biochemical. To be noted: 10 µM compound, 2.5 h at 37 °C. How it is done:
[…] […] The level of unreacted cortisol was measured by commercially available ELISA kit.
as §1
Background: In an ELISA, binding on a coated surface is turned into a signal by an enzyme label.

T1 sequence (P28845 whole entry): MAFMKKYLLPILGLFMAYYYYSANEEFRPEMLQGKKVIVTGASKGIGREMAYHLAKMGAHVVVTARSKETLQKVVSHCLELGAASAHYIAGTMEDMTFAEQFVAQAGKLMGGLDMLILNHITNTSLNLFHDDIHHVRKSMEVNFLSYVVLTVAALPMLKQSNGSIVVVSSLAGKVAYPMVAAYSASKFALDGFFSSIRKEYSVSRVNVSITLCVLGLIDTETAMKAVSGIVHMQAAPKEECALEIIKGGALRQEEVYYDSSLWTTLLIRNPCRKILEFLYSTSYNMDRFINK

The compound `CCC1SC(NC23CC4CC(CC(C4)C2)C3)=NC1=O` (stereo not drawn) [3c, 2-(adamantan-1-ylamino)-5-ethylthiazol-4(5H)-one] yielded a melting point of 257 to 259 °C. In series [1], this compound had an inhibition at 10 µM of 69.2 ± 5.12% and an IC50 of 5.44 ± 0.32 µM. Moreover, 10 µM produced 14.4 ± 1.16% inhibition in series [2].
Turning to `O=C1CSC(NC23CC4CC(CC(C4)C2)C3)=N1` [3a, 2-(adamantan-1-ylamino)thiazol-4(5H)-one], the melting point lay in the range of 271 to 273 °C. In series [1], this compound displayed an inhibition at 10 µM of 22.3 ± 5.31% and an IC50 above 10 µM. In addition, in series [2], 10 µM produced 29.8 ± 4.21% inhibition.
In the case of `CCCC1SC(NC23CC4CC(CC(C4)C2)C3)=NC1=O` (stereo not drawn) [3d, 2-(adamantan-1-ylamino)-5-propylthiazol-4(5H)-one], the melting point is 247 to 249 °C. In series [1], this compound came in with an inhibition at 10 µM of 72.4 ± 2.63% and an IC50 of 3.23 ± 0.26 µM. Testing at 10 µM in series [2] gave an inhibition of 28.9 ± 4.11%.
Turning to `O=C1N=C(NC23CC4CC(CC(C4)C2)C3)SC12CCC2` [3j, 6-(adamantan-1-ylamino)-5-thia-7-azaspiro[3.4]oct-6-en-8-one], the melting point lay in the range of 265 to 266 °C. Besides, in series [1], the inhibition at 10 µM turned out to be 74.1 ± 2.85% and the IC50 came to 3.32 ± 0.24 µM. In series [2], this compound had an inhibition at 10 µM of 41.4 ± 4.22%.
Taken in the same sequence, the figures for `CC1(C)SC(NC23CC4CC(CC(C4)C2)C3)=NC1=O` [3f, 2-(adamantan-1-ylamino)-5,5-dimethylthiazol-4(5H)-one] were 208 to 210 °C, 66 ± 1.12%, 6.11 ± 0.62 µM and 24.5 ± 3.24%.
As to `O=C1N=C(NC23CC4CC(CC(C4)C2)C3)SC1c1ccc(Br)cc1` (stereo not drawn) [3h, 2-(adamantan-1-ylamino)-5-(4-bromophenyl)thiazol-4(5H)-one], the inhibition at 10 µM in series [1] came out at 15.3 ± 0.49%; in series [2] it was 41.8 ± 6.12%. The half-inhibitory concentration (IC50) in series [1] is above 10 µM.
The compound `CC1SC(NC23CC4CC(CC(C4)C2)C3)=NC1=O` (stereo not drawn) [3b, 2-(adamantan-1-ylamino)-5-methylthiazol-4(5H)-one] displayed a melting point of 265 to 267 °C. In series [1], the inhibition at 10 µM amounted to 62.1 ± 3.59% and the IC50 was determined as 3.52 ± 0.19 µM. Besides, the inhibition at 10 µM in series [2] worked out at 44.7 ± 4.19%.
In turn, `CC(C)C1SC(NC23CC4CC(CC(C4)C2)C3)=NC1=O` (stereo not drawn) [3e, 2-(adamantan-1-ylamino)-5-isopropylthiazol-4(5H)-one] showed a melting point of 239 to 241 °C. Moreover, in series [1], the inhibition at 10 µM was found to be 76.4 ± 2.55% and it took 1.19 ± 0.21 µM to reach half-maximal inhibition (IC50). For the same compound, testing at 10 µM in series [2] gave an inhibition of 16.4 ± 2.06%.
In series [1], `O=C1N=C(NC23CC4CC(CC(C4)C2)C3)SC1c1ccccc1` (stereo not drawn) [3g, 2-(adamantan-1-ylamino)-5-phenylthiazol-4(5H)-one] came in with an inhibition at 10 µM of 46.3 ± 5.53% and an IC50 above 10 µM. This compound also displayed an inhibition at 10 µM in series [2] of 18.3 ± 3.18%.
Consider `O=C1N=C(NC23CC4CC(CC(C4)C2)C3)SC12CCCCC2` [3i, 2-(adamantan-1-ylamino)-1-thia-3-azaspiro [4.5]dec-2-en-4-one], for which the melting point lay within 268 to 270 °C. In series [1], this compound registered an inhibition at 10 µM of 82.8 ± 2.05% and an IC50 of 0.31 ± 0.05 µM. In addition, in series [2], the inhibition at 10 µM was above 44%.
In series [1], `CC1(C)[C@@H](OC(=O)CCC(=O)O)CC[C@]2(C)[C@H]3C(=O)C=C4[C@@H]5C[C@@](C)(C(=O)O)CC[C@]5(C)CC[C@@]4(C)[C@]3(C)CC[C@@H]12` [carbenoxolone, reference compound] showed an inhibition at 10 µM of 84.8 ± 6.23%.

The term melting point denotes the temperature, or range, at which the solid turns liquid. The term inhibition denotes the percentage by which the read-out fell short of the control. Lower therefore signals little suppression. By IC50 is commonly meant the concentration that inhibits the measured activity by half.
